Test results reported in US20250000908A1, “METHODS FOR PREPARING AND ADMINISTERING CRYOPRESERVED PLATELETS AND PLATELET DERIVATIVES LOADED WITH ANTI-CANCER DRUGS” (Cellphire, Inc., priority 2023, published 2025).

How the values were obtained:
[1] = system: platelets; assay: effect of antiplatelet compounds on DOX-induced platelet aggregation; type: cell-based; settings: reagent at recommended concentration
[2] = system: HepG2 cells; assay: receptor mediated binding between CPP or FPH and HepG2 cells with inhibitors / blocking mabs; type: cell-based, human; settings: inhibitor / blocking mab tested, Table 7
Protocol: Receptor mediated binding between CPP or FPH with HepG2 cells was investigated by inhibiting either a platelet receptor or a HepG2 receptor. Pooled apheresis platelets were incubated with 50 μM CFDA-Se for 60 minutes at room temperature then acidified to pH of 6.6-6.8 with citric acid. CPP and FPH were then created as disclosed in Example 1 but without doxorubicin. Untreated HepG2 cells served as negative control groups. HepG2 cells were seeded at a density of 10^5 cells in a 12-well plate (NuncTM Cell-Culture Treated Multidishes, catalog no: 150628) After incubation for 24 hours, the original medium was […] hours with fresh 0.5% FBS DMEM (ATCC-formulated Eagle's Minimum Essential Medium, catalog No. 30-2003). To determine the effect of platelet receptor inhibition on the binding between CPP/FPH and HepG2 cells first both CPP and FPH were incubated with tirofiban to block the GpIIb/IIIa receptor. Then the HepG2 cells were supplemented with tirofiban treated CPP, tirofiban treated FPH, untreated CPP, or untreated FPH at an equivalent platelet count of 0.3×10^6 platelets/μl. The cells were then washed with cold PBS three times, harvested by a scraper, and then suspended in PBS. The fluorescence intensity was determined by flow cytometry with the FITC channel. Approximately 10,0000 events for each sample was measured to assess the surface binding between the HepG2 cells and tirofiban treated CPP or FPH. To determine the effect of HepG2 receptor inhibition on the binding between CPP/FPH and HepG2 cells, first HepG2 cells were treated with either anti-podoplanin blocking monoclonal antibody or phagocytosis (wortmannin) inhibitor for 30 minutes. Then the HepG2 cells were incubated with either CPP or FPH. The HepG2 cells were washed with cold PBS three times, harvested by a scraper, and then suspended in PBS. The fluorescence intensity was determined by flow cytometry with the FITC channel. Approximately 10,0000 events for each sample was measured to assess the surface binding between the HepG2 cells CPP or FPH. […]

[3] = biological target: GPIIb/IIIa (Homo sapiens, UniProt P05106+P08514); settings: printed as recommended concentration; source PMID: 9700979; cited from earlier work
Chain of GPIIb/IIIa (P08514 32-887 limits assumed): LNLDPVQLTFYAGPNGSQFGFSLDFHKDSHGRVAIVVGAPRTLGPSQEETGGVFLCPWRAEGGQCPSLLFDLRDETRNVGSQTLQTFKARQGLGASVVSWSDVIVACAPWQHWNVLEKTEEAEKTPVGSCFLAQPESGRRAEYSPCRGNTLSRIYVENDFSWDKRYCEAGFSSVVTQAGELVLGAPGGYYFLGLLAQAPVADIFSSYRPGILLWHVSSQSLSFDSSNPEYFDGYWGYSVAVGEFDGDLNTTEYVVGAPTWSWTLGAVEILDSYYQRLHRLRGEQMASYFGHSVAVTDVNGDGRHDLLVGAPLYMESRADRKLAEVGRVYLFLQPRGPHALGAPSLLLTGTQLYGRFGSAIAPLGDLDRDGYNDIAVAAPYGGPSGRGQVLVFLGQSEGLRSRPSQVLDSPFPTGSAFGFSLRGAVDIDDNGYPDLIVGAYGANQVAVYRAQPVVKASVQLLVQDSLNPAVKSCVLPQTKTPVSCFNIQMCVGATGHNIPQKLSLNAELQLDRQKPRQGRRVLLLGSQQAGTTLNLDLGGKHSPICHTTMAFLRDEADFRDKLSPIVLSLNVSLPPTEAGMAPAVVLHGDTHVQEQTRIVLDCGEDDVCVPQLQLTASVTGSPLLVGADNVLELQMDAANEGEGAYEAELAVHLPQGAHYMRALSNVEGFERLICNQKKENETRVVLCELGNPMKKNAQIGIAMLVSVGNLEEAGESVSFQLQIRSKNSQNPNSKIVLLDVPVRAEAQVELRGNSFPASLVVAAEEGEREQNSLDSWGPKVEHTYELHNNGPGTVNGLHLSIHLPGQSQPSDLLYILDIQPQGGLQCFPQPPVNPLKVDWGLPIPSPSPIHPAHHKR
Chain of GPIIb/IIIa (P08514 891-1039 partner limits assumed): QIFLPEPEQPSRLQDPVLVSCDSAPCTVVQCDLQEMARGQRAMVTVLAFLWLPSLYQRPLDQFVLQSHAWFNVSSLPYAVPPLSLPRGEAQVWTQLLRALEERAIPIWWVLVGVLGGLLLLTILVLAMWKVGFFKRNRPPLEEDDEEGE
Chain of GPIIb/IIIa (P05106 27-788): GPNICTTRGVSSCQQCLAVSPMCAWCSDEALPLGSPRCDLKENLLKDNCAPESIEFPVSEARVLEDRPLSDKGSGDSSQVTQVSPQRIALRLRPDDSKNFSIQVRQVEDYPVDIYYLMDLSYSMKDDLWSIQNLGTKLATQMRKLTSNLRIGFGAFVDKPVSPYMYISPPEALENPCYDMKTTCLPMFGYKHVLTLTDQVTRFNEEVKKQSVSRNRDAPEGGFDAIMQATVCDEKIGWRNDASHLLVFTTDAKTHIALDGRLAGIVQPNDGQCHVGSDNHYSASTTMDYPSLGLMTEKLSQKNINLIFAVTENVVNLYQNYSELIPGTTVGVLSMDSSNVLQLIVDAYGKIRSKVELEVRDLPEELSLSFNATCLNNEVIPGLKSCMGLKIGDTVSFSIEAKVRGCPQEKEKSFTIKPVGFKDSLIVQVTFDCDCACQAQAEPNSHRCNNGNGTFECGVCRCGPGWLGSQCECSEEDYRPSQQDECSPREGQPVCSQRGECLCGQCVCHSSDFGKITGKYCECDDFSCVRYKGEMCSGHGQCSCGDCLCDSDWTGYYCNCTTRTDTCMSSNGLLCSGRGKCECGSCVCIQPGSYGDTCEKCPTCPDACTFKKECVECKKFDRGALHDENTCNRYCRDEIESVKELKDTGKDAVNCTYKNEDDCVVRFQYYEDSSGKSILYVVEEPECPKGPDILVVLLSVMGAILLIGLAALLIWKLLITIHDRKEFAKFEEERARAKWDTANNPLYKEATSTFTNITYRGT

Row | SMILES | Max Platelet Count (Normalized to Untreated) ([1]; 0.5 mg/mL DOX) [%] | Max Platelet Count (Normalized to Untreated) ([1]; 1 mg/mL DOX) [%] | other results
1 | CC(=O)Oc1ccccc1C(=O)O [Aspirin (ASA), Aspirin] | 52 | 15 | 
2 | CSCCNc1nc(SCCC(F)(F)F)nc2c1ncn2[C@@H]1O[C@H](COP(=O)(O)OP(=O)(O)C(Cl)(Cl)P(=O)(O)O)[C@@H](O)[C@H]1O [Cangrelor] | 47 | 26 | 
3 | CN(C)CCCN1c2ccccc2Sc2ccc(Cl)cc21 [Chlorpromazine] |  |  | change of CPP/FPH binding to HepG2 cells in comparison to control [2]: No Significance
4 | COC(=O)/C=C1/SC(=NC(=O)c2ccc(Cl)cc2Cl)N(c2ccc(Cl)cc2)C1=O [FR171113] | 51 | 16 | 
5 | Cl.Cl.Cl.N=C(N)c1ccc(N2CCN(C3CCN(CC(=O)O)CC3)CC2)cc1 [GR144053] | 83 | 42 | IC50 [3]: 0.037 µM
6 | O=c1c(-c2ccc(O)cc2)coc2cc(O)cc(O)c12 [Genistein] |  |  | change of CPP/FPH binding to HepG2 cells in comparison to control [2]: No Significance
7 | CSc1nc(N)c2ncn([C@@H]3O[C@H](COP(=O)(O)OP(=O)(O)O)[C@@H](O)[C@H]3O)c2n1 [MeSADP] | 33 | 10 | 
8 | CC1(C)CC(NC(=O)C[P+](c2ccccc2)(c2ccccc2)c2ccccc2)CC(C)(C)N1[O] [MitoTEMPO] |  |  | Max Platelet Count (Normalized to Untreated) ([1]; 1.2 mM DOX): 37%
9 | CC(=O)N[C@@H](CS)C(=O)O [N-Acetylcysteine] |  |  | Max Platelet Count (Normalized to Untreated) ([1]; 0.6 mM DOX): 73%
10 | Nc1c(S(=O)(=O)O)cc(Nc2ccc(Nc3ccccc3)c(S(=O)(=O)O)c2)c2c1C(=O)c1ccccc1C2=O [PSB 0739] | 26 | 18 | 
11 | CCCCS(=O)(=O)N[C@@H](Cc1ccc(OCCCCC2CCNCC2)cc1)C(=O)O [Tirofiban] |  |  | change of CPP/FPH binding to HepG2 cells in comparison to control [2]: Significance; Max Platelet Count (Normalized to Untreated) ([1]; 0.6 mM DOX): 73%
